Columns and labels:
Assay in all cases: relative viability (nuclei count vs DMSO), 5 days (fraction); higher = more cells survive
CX-5461 + Pemetrexed = compound: Cc1cnc(CNC(=O)c2c(=O)c3ccc(N4CCCN(C)CC4)nc3n3c2sc2ccccc23)cn1 [CX-5461] + Nc1nc2[nH]cc(CCc3ccc(C(=O)N[C@@H](CCC(=O)O)C(=O)O)cc3)c2c(=O)[nH]1 [Pemetrexed] (partner 0.2 µM)
Summary of the method: (§1)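 Relative viability equals treated-well nuclei counts divided by vehicle-well nuclei counts. Counts came from 4× images of lung cancer cell lines grown in 1536-well plates for 5 days after pin-tool dosing on the day after seeding. Dosing used one drug alone or a fixed anchor-drug dose plus five library-drug doses (not always all listed) in √10 steps, and values are medians of duplicate plates.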

CX-5461 + Olaparib = compound: Cc1cnc(CNC(=O)c2c(=O)c3ccc(N4CCCN(C)CC4)nc3n3c2sc2ccccc23)cn1 [CX-5461] + O=C(c1cc(Cc2n[nH]c(=O)c3ccccc23)ccc1F)N1CCN(C(=O)C2CC2)CC1 [Olaparib] (partner 8 µM)
Summary of the method: as §1

IMD-0354 + Pictilisib = compound: O=C(Nc1cc(C(F)(F)F)cc(C(F)(F)F)c1)c1cc(Cl)ccc1O [IMD-0354] + CS(=O)(=O)N1CCN(Cc2cc3nc(-c4cccc5[nH]ncc45)nc(N4CCOCC4)c3s2)CC1 [Pictilisib] (partner 1 µM)
Summary of the method: as §1

IMD-0354 + Vorinostat = compound: O=C(Nc1cc(C(F)(F)F)cc(C(F)(F)F)c1)c1cc(Cl)ccc1O [IMD-0354] + O=C(CCCCCCC(=O)Nc1ccccc1)NO [Vorinostat] (partner 1 µM)
Summary of the method: as §1

Row | Cell Line | relative viability (CX-5461 + Pemetrexed; first compound 0.01 µM) | relative viability (CX-5461 + Pemetrexed; first compound 0.03162 µM) | relative viability (CX-5461 + Pemetrexed; first compound 0.1 µM) | relative viability (CX-5461 + Pemetrexed; first compound 0.3162 µM) | relative viability (CX-5461 + Pemetrexed; first compound 1 µM) | relative viability (CX-5461 + Olaparib; first compound 0.01 µM) | relative viability (CX-5461 + Olaparib; first compound 0.03162 µM) | relative viability (CX-5461 + Olaparib; first compound 0.1 µM) | relative viability (CX-5461 + Olaparib; first compound 0.3162 µM) | relative viability (CX-5461 + Olaparib; first compound 1 µM) | relative viability (IMD-0354 + Pictilisib; first compound 0.04 µM) | relative viability (IMD-0354 + Pictilisib; first compound 0.1265 µM) | relative viability (IMD-0354 + Pictilisib; first compound 0.4 µM) | relative viability (IMD-0354 + Pictilisib; first compound 1.265 µM) | relative viability (IMD-0354 + Pictilisib; first compound 4 µM) | relative viability (IMD-0354 + Vorinostat; first compound 0.04 µM) | relative viability (IMD-0354 + Vorinostat; first compound 0.1265 µM) | relative viability (IMD-0354 + Vorinostat; first compound 0.4 µM) | relative viability (IMD-0354 + Vorinostat; first compound 1.265 µM) | relative viability (IMD-0354 + Vorinostat; first compound 4 µM)
1 | NCI-H2347 | 0.396 | 0.42 | 0.431 | 0.411 | 0.41 | 0.57 | 0.648 | 0.606 | 0.477 | 0.517 | 0.77 | 0.532 | 0.679 | 0.624 | 0.392 | 0.636 | 0.629 | 0.512 | 0.315 | 0.382
2 | NCI-H2405 | 1.06 | 0.892 | 1 | 1.02 | 0.911 | 0.9 | 0.891 | 0.866 | 0.792 | 0.639 | 0.536 | 0.521 | 0.34 | 0.306 | 0.172 | 1.24 | 0.984 | 0.706 | 0.306 | 0.335
3 | NCI-H3122 | 0.201 | 0.196 | 0.2 | 0.206 | 0.18 | 0.695 | 0.653 | 0.615 | 0.667 | 0.617 | 0.737 | 0.554 | 0.527 | 0.174 | 0.173 | 1.04 | 0.936 | 0.622 | 0.3 | 0.132
4 | PC-3 [JPC-3] | 1.18 | – | 1.11 | 1.15 | 0.86 | 1.15 | – | 1.08 | 1.15 | 0.898 | 0.779 | 0.701 | 0.588 | 0.376 | 0.229 | 0.869 | 0.813 | 0.769 | 0.296 | 0.412
5 | PC-14 | 0.134 | 0.134 | 0.118 | 0.157 | 0.113 | 0.241 | 0.252 | 0.125 | 0.213 | 0.0738 | 1.05 | 0.713 | – | 0.409 | 0.132 | 0.83 | 0.751 | 0.564 | 0.234 | 0.119
6 | RERF-LC-KJ | 0.508 | 0.465 | 0.442 | 0.403 | 0.434 | 0.785 | 0.827 | 0.619 | 0.848 | 0.415 | 0.518 | 0.595 | 0.542 | 0.233 | 0.226 | 0.775 | 0.677 | 0.542 | 0.167 | 0.172
7 | SK-LU-1 | 1.06 | 1.12 | 0.852 | 0.965 | 0.651 | 0.423 | 0.467 | 0.442 | 0.473 | 0.335 | 0.681 | 0.583 | 0.379 | 0.33 | 0.233 | 0.796 | 0.597 | 0.623 | 0.194 | 0.264
8 | SK-MES-1 | 0.95 | 0.988 | 0.888 | 0.955 | 0.546 | 0.706 | 0.738 | 0.508 | 0.641 | 0.246 | 0.353 | 0.363 | 0.335 | 0.261 | 0.226 | 1.4 | 1.09 | 0.693 | 0.305 | 0.192
9 | SW 1573 | 0.88 | 0.845 | 0.153 | 0.692 | 0.203 | 0.395 | 0.468 | 0.29 | 0.438 | 0.141 | 0.577 | 0.468 | 0.263 | 0.418 | 0.137 | 1.08 | 0.676 | 0.429 | 0.158 | 0.0883

— the supplement of paper PMC10307832
